The values below are quoted from earlier work in US20260199368A1, “[…] SYSTEM CONTAINING REMIMAZOLAM” (LTS LOHMANN THERAPIE-SYSTEME AG, priority 2022, published 2026).

The conditions of the data set: intranasal administration; cited from earlier work.

As to `COC(=O)CC[C@@H]1N=C(c2ccccn2)c2cc(Br)ccc2-n2c(C)cnc21` [remimazolam, methyl 3-{(4S)-8-bromo-1-methyl-6-(pyridin-2-yl)-4/-/-imidazo[1,2-a][1,4]benzodiazepin-4-yl}propanoate], the bioavailability result was “about 50%”.
